In patent US9446145B2, “Curcumin-antibody conjugates as anti-cancer agents” (priority 2009, dated 2016) one finds IC50 data, which are given here for one molecule.

For experiment [1], the system named is B16F10 melanoma cells. Put plainly: B16F10 melanoma cell death IC50 (live cell counts 24 h after treatment). The class given is cell-based. The conditions noted are these: Mus musculus, B16-F10, 24 h, free/solubilized curcumin, read-out: IC50 (concentration required for 50% B16F10 melanoma cell death). As for the experimental part:
(§1) B16F10 melanoma cells were plated in a 96-well tissue culture plate with 2,000 cells in 50 μl of medium (DMEM+10% fetal bovine serum+1% penicillin-streptomycin) per well. After 24 hours, the targeted curcumin derivative (linked to 633 dye) was administered in a range of concentrations-10 nM, 20 nM, 30 nM, 50 nM, 100 nM. The product was diluted in neurobasal medium (+1% penicillin-streptomycin, 1% 1-glutamine, 2% B27 supplement), with 50 μl per well, and 2 wells per concentration. Control wells were treated with corresponding concentrations of free MUC18 antibody coupled to 633 dye. The plate was imaged after 24 hours using visible light and fluorescent microscopes. Using cell counts from four frames per well, the mean live cell number and mean standard deviation for each concentration (and its corresponding control) were found. The data was compiled and graphed on Kaleida Graph. […] See below. Each corresponding control well received the same amount of curcumin-free Mel-CAM-Dylight800.
Determined using same methods as step 1a. Dilution of 100 nM, 200 nM, 300 nM, 400 nM, 500 nM, 1 μM, 10 μM, 20 μM, 30 μM, 40 μM, and 50 μM were made using a 40 mM stock solution of curcumin in DMSO. Curcumin IC50 was compared to curc-MUC18 IC50 using Kaleida Graph.

Experiment [2] has as its system GL261 glioblastoma cells. Put plainly: GL261 glioblastoma cell killing IC50 (same approach as for B16F10). In kind it is cell-based. The conditions noted are these: Mus musculus, solubilized non-targeted curcumin. As to the method: as §1
The same approach used for the B16F10 melanoma cells (see above) was next used for the glioblastoma GL261 cells by attaching curcumin to an antibody against the […] antigen, which is expressed on the surface of grade III/IV glioblastoma (Strik, H. M., et al., Galectin-3: Cellular Distribution and Correlation with WHO-grade in Human Gliomas. Journal of Neuro-Oncology, 53(1): p. 13-20 (2001)). […]

Turning to `COc1cc(C=CC(=O)CC(=O)C=Cc2ccc(O)c(OC)c2)ccc1O` [curcumin, 1,7-bis(4-hydroxy-3-methoxyphenyl)-1,6-heptadiene-3,5-dione], the IC50 in experiment [1] is 15 µM; in experiment [2] it was 10 µM.
